Where two headings read alike, the source gives them in different places.
What was measured:
Aedes albopictus [1] = assay: Effective dose / protection efficacy, human-bait technique; assay type: in vivo; details: for pest or weed control at 0.081 µg/cm2, 0.081 µg/cm2 / pest or weed control at 0.17 µg/cm2, 0.17 µg/cm2 / pest or weed control at 0.33 µg/cm2, 0.33 µg/cm2 / pest or weed control at 0.5 µg/cm2, 0.5 µg/cm2 / pest or weed control at 0.83 µg/cm2, 0.83 µg/cm2 / pest or weed control at 1.7 µg/cm2, 1.7 µg/cm2 / pest or weed control at 8.3 µg/cm2, 8.3 µg/cm2 / pest or weed control at 16.7 µg/cm2, 16.7 µg/cm2 / pest or weed control at 83.3 µg/cm2, 83.3 µg/cm2: Aedes albopictus, topical, read-out: Protection efficacy PE%; for 100% PE: Table S1; for Protection efficacy (dose to obtain complete protection (100%) from bite attempts): applied on skin of volunteers, 3 min exposure
Description: The repellence of DEET, Icaridin (both supplied by Istituto Biochimico VEBI s.r.l.), acetals, and the synthesized hydroxyacetals was evaluated againstAedes albopictususing the human-bait technique (to simulate the condition of human skin on which repellents will be applied).[22]A. albopictuswas reared and tested at 26 ± 2 °C, ≥60 ± 10% relative humidity (RH), and at 14:10 h light/dark photoperiod, within Plexiglas cylindrical laboratory cages (35 cm diameter, 60 cm length) with one end closed by a net. During the tests, cages contained ≈150 nulliparous, 4–7 day-old, nonblood-fed females. For each compound to be tested, up to six volunteers participated in the trial.
The study was approved by the Regional Ethics Committee for Clinical Trials of Tuscany Region with the registered number 20383. Volunteers agreed to take part in the experiments following informed consent; only volunteers non-allergic to mosquito bites participated in the trials. On the day of the bioassay, they had no contact with lotions, perfumes, oils, or perfumed soaps. They wore latex surgical gloves, in which a dorsal square area of 30 cm^2 was cut open. Mosquito-exposed skin was treated with 50 μL of ethanol, as the negative hand control. The other hand was treated with 50 μL of the tested compounds in ethanol solution (dosages corresponding to 0.081, 0.17, 0.33, 0.5, 0.83, 1.7, 8.3, 16.7, and 83.3 μg/cm^2). Both hands were presented in the same test cage. The number of probing mosquitoes in a 3 min exposure period was recorded. During each test, the control and the treated hand were presented interchanged to verify the mosquitoes’ readiness to bite. Trials were considered valid only if at least 30 mosquitoes performed probing behavior on the control hand before each repellent dosage was tested. The protection efficacy (PE %) obtained from all replicates was calculated, according to the WHO guidelines[31] using this formula [drawing 1]
To evaluate the protection efficacy, volunteers applied increasing doses of the compounds to the skin on the back of their hands (30 cm^2, while the rest was covered with a rubber glove) and counted the number of mosquitoes attempting to bite; the solvent only was used on the control hand. The protection (percentage of repelled mosquitoes) was calculated as reported in the Material and Methods section.

Aedes albopictus [2] = assay: Protection time at 0.17 mg/cm2, human-bait technique; assay type: in vivo; details: for pest or weed control at 0.17 mg/cm2, 0.17 mg/cm2: Aedes albopictus, topical, read-out: Protection time PE%; for Protection time (95% protection): dose of 0.17 mg/cm^2, tests ended after 8 h
Description: To evaluate the protection time of derivatives, the PE % was measured with 100 μL of a 5% ethanol solution, corresponding to 0.17 mg/cm^2 of exposed skin, under the same laboratory conditions. Mosquito-exposed skin was treated with 100 μL of ethanol, as the negative hand control. For each volunteer (up to 8), the test was performed every hour, up to 8 h from the application. The protection time of DEET and Icaridin was measured under the same conditions. Since these trials were run in parallel with those aimed to profile the cytotoxicity of the compounds (paragraph 2.6), we interrupted the experiments for those compounds showing to have higher cytotoxicity than Icaridin and DEET as soon as the results were available. For this reason, the number of volunteers differs among the compounds.
The average time until protection which was higher than 95% protection time was considered for each compound. Moreover, for the compounds tested on at least three volunteers, the complete (100%) protection time was also estimated (SPSS 28.01.0) using the Kaplan–Meier survivor function procedure.[22]

HaCaT cells = assay: Cytotoxicity on human keratinocytes (MTS); assay type: cell-based; details: 82 μg/mL, 24 h
Description: HaCaT cells were cultured in 5% CO2 at 37 °C in Dulbecco’s modified Eagle’s medium (DMEM), supplemented with 10% fetal bovine serum (FBS), 1% L-glutamine ([…]), and 1% penicillin–streptomycin (Thermo Fisher Scientific, Rodano, Milan, Italy). […] Experiments were performed in triplicate.

Structure (SMILES)	pest or weed control at 0.081 µg/cm2, 0.081 µg/cm2 (Aedes albopictus [1])	pest or weed control at 0.17 µg/cm2, 0.17 µg/cm2 (Aedes albopictus [1])	pest or weed control at 0.33 µg/cm2, 0.33 µg/cm2 (Aedes albopictus [1])	pest or weed control at 0.5 µg/cm2, 0.5 µg/cm2 (Aedes albopictus [1])	pest or weed control at 0.83 µg/cm2, 0.83 µg/cm2 (Aedes albopictus [1])	pest or weed control at 1.7 µg/cm2, 1.7 µg/cm2 (Aedes albopictus [1])	pest or weed control at 8.3 µg/cm2, 8.3 µg/cm2 (Aedes albopictus [1])	pest or weed control at 16.7 µg/cm2, 16.7 µg/cm2 (Aedes albopictus [1])	pest or weed control at 83.3 µg/cm2, 83.3 µg/cm2 (Aedes albopictus [1])	100% PE (Aedes albopictus [1])	Protection efficacy (dose to obtain complete protection (100%) from bite attempts) (Aedes albopictus [1])	pest or weed control at 0.17 mg/cm2, 0.17 mg/cm2 (Aedes albopictus [2]; 0.17mg/cm2, 1 h)	pest or weed control at 0.17 mg/cm2, 0.17 mg/cm2 (Aedes albopictus [2]; 0.17mg/cm2, 2 h)	pest or weed control at 0.17 mg/cm2, 0.17 mg/cm2 (Aedes albopictus [2]; 0.17mg/cm2, 3 h)	pest or weed control at 0.17 mg/cm2, 0.17 mg/cm2 (Aedes albopictus [2]; 0.17mg/cm2, 4 h)	pest or weed control at 0.17 mg/cm2, 0.17 mg/cm2 (Aedes albopictus [2]; 0.17mg/cm2, 5 h)	pest or weed control at 0.17 mg/cm2, 0.17 mg/cm2 (Aedes albopictus [2]; 0.17mg/cm2, 6 h)	pest or weed control at 0.17 mg/cm2, 0.17 mg/cm2 (Aedes albopictus [2]; 0.17mg/cm2, 7 h)	pest or weed control at 0.17 mg/cm2, 0.17 mg/cm2 (Aedes albopictus [2]; 0.17mg/cm2, 8 h)	Average PT >95% (% coefficient of variation) (Aedes albopictus [2]; at the dose of 0.17mg/cm2)	further results
CCCCC1(CCCC)OCC(CC)(CO)CO1 [16c]	6.06%	59.5%	8.39%	36.2%	52.9%	95.5%	100%	100%	100%	1.7 µg/cm2	8.3 μg/cm^2	99%	96.3%	97.6%	97.1%	94.8%	95.4%	95.1%	99%	480 (1.4) min	Protection time (95% protection) (Aedes albopictus [2]): 8 h; survival of keratocytes (HaCaT cells): > 88%
CC1(CO)COC2(CCCCC2)OC1 [6b]	48.4%	62.7%	77%	64.9%	100%	100%	100%	100%	100%	0.83 µg/cm2	0.83 μg/cm^2	100%	99.1%	100%	100%	99.4%	90.8%	97.3%	95.1%	480 (3.3) min	Estimated 100% PT (complete protection time, mean±SE) (Aedes albopictus [2]; at the dose of 0.17mg/cm2, Kaplan–Meier estimate): 375 ± 89 min; Protection time (95% protection) (Aedes albopictus [2]): 8 h; survival of keratocytes (HaCaT cells): > 88%

— article PMC9896555, “Cyclic Acetals as Novel Long-Lasting Mosquito Repellents” (Journal of Agricultural and Food Chemistry, 2023)
